# Laboratory results: paper PMC7504466, “In-Vitro and In-Silico Evaluations of Heterocyclic-Containing Diarylpentanoids as Bcl-2 Inhibitors Against LoVo Colorectal Cancer Cells” (Molecules, 2020)
# What was measured:
# NCI-H508 cells = assay: MTT cytotoxicity assay, NCI-H508 cells; assay type: cell-based; details: Homo sapiens, 72 h post-treatment, read-out: IC50 (µM) BRAF NCI-H508
# Protocol: (§1) The in-vitro cytotoxic activity of the synthesized compounds on seven human CRC cell lines including KRAS (T84, SW620, LoVo) and BRAF (HT29, NCI-H508, RKO and LS411N) mutated cells were determined by MTT assay as previously described. The IC50 values obtained are summarized in Table 2 in which 5-FU and normal human dermal fibroblasts (NHDF) were used as controls. Meanwhile, a heatmap (Figure 3) was also generated using GraphPad Prism v7.0 (GraphPad Software, La Jolla, CA, USA) to visualize the cytotoxic trends of synthesized compounds graphically.
# (§2) A panel of KRAS (T84, SW620 and LoVo) and BRAF (HT29, NCI-H508, RKO and LS411N) mutated human CRC cell lines were grown in Dulbecco’s modified Eagle’s medium (DMEM) containing 10% fetal bovine serum (FBS) and 1% penicillin/streptomycin at 37 °C under 5% CO2 while NHDF cells were cultured in DMEM with 5% FBS under the same condition. The culture medium was replenished every two days until the cells reached 80–90% confluency for further usage. All cell lines (T84, ATCC®CCL-248™; SW620, ATCC®CCL-227™; LoVo, ATCC®CCL-229™; HT-29, ATCC®HTB-38; NCI-H508, ATCC®CCL-253™; RKO, ATCC®CRL-2577; LS411N, ATCC®CRL-2159; NHDF, ATCC® PCS-201-010™) were purchased from American Type culture Collections (ATCC, Manassas, VA, USA).
# (§3) LoVo cells (1.5–5 × 10^3 cells/well) were seeded into a 96 well plate and incubated at 37 °C and 5% CO2 atmosphere for 24 h. On the following day, the cell media were replaced with 100 µL of test compounds at various concentration. The final concentration of DMSO in the well is 0.1%. After 72 h of incubation, culture medium was removed and 100 µL of MTT (thiazoyl blue tertrazolium bromide) solution (0.5 mg/mL in culture media) was added. The resultant plates were then further incubated at 37 °C for 4 h. Upon completion, the MTT solution was removed and the formazan salts formed were dissolved in 100 µL of DMSO. The absorbance was recorded with a microplate reader at 570 nm. The IC50 values of tested compounds were calculated from three independent experiments.
# [1] = tested on: normal human dermal fibroblasts (NHDF); assay: MTT cytotoxicity assay, normal human dermal fibroblasts; assay type: cell-based; details: 72 h post-treatment
# Protocol: as §1, §2, §3
# Bad = assay: Western blot, Bad; assay type: cell-based, human; details: 5 µM, LoVo cells, detectable only after 48 h
# Protocol: (§4) Lovo cells (1.5 × 10^4 cells/cm^2) were seeded in a T75 flask and incubated at 37 °C and 5% CO2 atmosphere overnight. The seeded cells were then treated with selected compounds at 5 µM of 2e for 24 h, 48 h, and 72 h. After treatment, the cells were harvested and lysed with phenylmethanesulfonyl fluoride (PMSF)-containing cell lysis buffer. The lysates were then centrifuged at 13,300× g for 15 min and the supernatant was collected. Protein concentrations of all samples were determined using a BCA assay kit (Thermo Scientific Inc., Waltham, MA, USA). Equal amounts of protein were electrophoresed in 12% and 20% SDS-polyacrylamide gel (SDS-PAGE), and electro-transferred onto a 0.22-μm polyvinyldene difluoride membrane. Each membrane was blocked with 5% (w/v) skim milk at room temperature for 1 h followed by overnight incubation with specific primary antibodies (1:1000) at 4 °C. Subsequently, the respective membrane was washed thrice with TBST (0.05% (v/v) of tween-20) followed by 1 h incubation with secondary antibody (1:10,000). Upon completion, the membrane was washed thrice with 1X Tris-Buffered Saline, 0.1% Tween® 20 Detergent (TBST) and the immune reactive bands were developed using SuperSignal West Dura Extended Duration Substrate (Thermo Scientific Inc., Waltham, MA, USA). […]
# Bcl-xL = assay: Western blot, Bcl-xL; assay type: cell-based, human; details: 5 µM, LoVo cells, up to 72 h
# Protocol: as §4
# caspase-9 = assay: Western blot, cleaved caspase-9; assay type: cell-based, human; details: 5 µM, LoVo cells
# Protocol: as §4
# Bax = assay: Western blot, Bax; assay type: cell-based, human; details: 5 µM, LoVo cells, detectable only after 48 h
# Protocol: as §4
# cleaved PARP = assay: Western blot, cleaved PARP; assay type: cell-based, human; details: 5 µM, LoVo cells, after 24 h
# Protocol: as §4
# SW620 cells = assay: MTT cytotoxicity assay, SW620 cells; assay type: cell-based; details: Homo sapiens, SW-620, 72 h post-treatment, read-out: IC50 (µM) KRAS SW620
# Protocol: as §1, §2, §3
# LoVo cells [2] = assay: Colony formation assay; assay type: cell-based, human; details: 0.625-5 µM, 7 days post-treatment
# Protocol: LoVo cells (1 × 10^3 cells/well) were seeded into a 6-well plate and incubated at 37 °C and 5% CO2 atmosphere overnight. After incubation, the culture media were replaced with 3 mL of test compounds at various concentration and further incubated for seven days. Upon completion, cells were washed with PBS and fixed with 4% paraformaldehyde for 15 min followed by cell staining with 0.5% (w/v) crystal violet for 20 min. The resultant plates were then washed with tap water and dried at room temperature. Upon drying, the plate image was photographed.
# caspase-8 = assay: Western blot, caspase-8; assay type: cell-based, human; details: 5 µM, LoVo cells
# Protocol: as §4
# LoVo cells [3] = assay: Measurement of intracellular ROS levels (DCFH-DA, flow cytometry); assay type: cell-based, human; details: 5 µM
# Protocol: LoVo cells (1 × 10^5 cells/well) were seeded into a 6-well plate and incubated at 37 °C and 5% CO2 atmosphere overnight. After incubation, the seeded cells were treated with 1 mL of 10 µM DCFDA in culturing media for 1 h. Upon completion, the cells were washed twice with PBS followed by treatments with 5 µM of selected compounds for 24, 48 and 72 h. Then, the treated cells were harvested, washed and re-suspended in PBS followed by flow-cytometric analysis at the FITC channel.
# LoVo cells [4] = assay: MTT cytotoxicity assay, LoVo cells; assay type: cell-based; details: Homo sapiens, 72 h post-treatment, read-out: IC50 (µM) KRAS LoVo
# Protocol: as §1, §2, §3
smiles,measurement,setting,value
"O=C1C(=Cc2ccccc2Br)CSCC1=Cc1ccccc1Br [Compound 2e, 3,5-Bis(2-bromobenzylidene)tetrahydro-4H-thiopyran-4-one]",IC50,NCI-H508 cells,1.1 µM
same,IC50,[1],7100 nM
same,Bad expression,Bad,up-regulation
same,Bcl-xL expression,Bcl-xL,remained unaffected
same,caspase-9 cleavage,caspase-9,activate the cleavage of caspase-9
same,Bax expression,Bax,up-regulation
same,cleaved PARP level,cleaved PARP,increased
same,IC50,SW620 cells,1.4 µM
same,colony formation of LoVo cells,LoVo cells [2],inhibit the colony formation of LoVo cells in a dose-dependent manner
same,caspase-8 cleavage,caspase-8,unaffected
same,cellular ROS level,LoVo cells [3]; 24 h,rapid increment in cellular ROS level
same,cellular ROS level,LoVo cells [3]; 48 h and 72 h,secondary increment of cellular ROS
same,IC50,LoVo cells [4],1 µM
